Measurements: patent publication US20260337193A1, “SMALL MOLECULE INHIBITORS OF UBIQUITIN SPECIFIC PROTEASE 1 (USP1) AND USES THEREOF” (Insilico Medicine IP Limited, priority 2023, published 2026)

Experiments:
[1] = target: T1, Human recombinant USP1/UAF1 (Homo sapiens, UniProt O94782); test: Enzymatic assay: USP1/UAF1 deubiquitination of Ubiquitin Rhodamine 110 (kinetic fluorescence); type: biochemical; conditions: 2 nM USP1/UAF1, 15 min preincubation at RT, HEPES pH 8.0, 500 nM Ubiquitin Rhodamine 110
T1 construct: purchased R & D E-568-050; host or cells: baculovirus infected Sf21 cells
T1 sequence (O94782 whole entry): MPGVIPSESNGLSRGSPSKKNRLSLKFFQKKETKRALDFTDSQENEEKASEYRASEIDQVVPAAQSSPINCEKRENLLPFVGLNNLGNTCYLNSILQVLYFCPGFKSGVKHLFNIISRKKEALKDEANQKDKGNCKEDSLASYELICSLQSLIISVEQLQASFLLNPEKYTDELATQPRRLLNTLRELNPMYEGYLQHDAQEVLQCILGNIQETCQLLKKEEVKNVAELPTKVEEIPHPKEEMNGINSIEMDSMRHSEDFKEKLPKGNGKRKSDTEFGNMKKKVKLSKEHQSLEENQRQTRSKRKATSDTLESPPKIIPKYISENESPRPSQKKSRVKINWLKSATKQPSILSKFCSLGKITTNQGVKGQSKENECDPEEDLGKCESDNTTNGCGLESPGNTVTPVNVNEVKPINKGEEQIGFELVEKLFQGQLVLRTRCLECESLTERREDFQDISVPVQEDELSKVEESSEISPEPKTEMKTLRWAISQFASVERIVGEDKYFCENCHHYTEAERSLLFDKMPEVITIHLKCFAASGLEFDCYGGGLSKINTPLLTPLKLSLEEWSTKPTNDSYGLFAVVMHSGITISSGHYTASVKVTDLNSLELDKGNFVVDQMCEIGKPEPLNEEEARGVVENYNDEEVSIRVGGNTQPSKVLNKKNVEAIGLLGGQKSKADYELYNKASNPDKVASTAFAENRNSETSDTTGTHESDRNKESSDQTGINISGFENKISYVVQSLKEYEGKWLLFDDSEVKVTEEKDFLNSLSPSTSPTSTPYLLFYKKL
T1 sequence (Q8TAF3 whole entry partner): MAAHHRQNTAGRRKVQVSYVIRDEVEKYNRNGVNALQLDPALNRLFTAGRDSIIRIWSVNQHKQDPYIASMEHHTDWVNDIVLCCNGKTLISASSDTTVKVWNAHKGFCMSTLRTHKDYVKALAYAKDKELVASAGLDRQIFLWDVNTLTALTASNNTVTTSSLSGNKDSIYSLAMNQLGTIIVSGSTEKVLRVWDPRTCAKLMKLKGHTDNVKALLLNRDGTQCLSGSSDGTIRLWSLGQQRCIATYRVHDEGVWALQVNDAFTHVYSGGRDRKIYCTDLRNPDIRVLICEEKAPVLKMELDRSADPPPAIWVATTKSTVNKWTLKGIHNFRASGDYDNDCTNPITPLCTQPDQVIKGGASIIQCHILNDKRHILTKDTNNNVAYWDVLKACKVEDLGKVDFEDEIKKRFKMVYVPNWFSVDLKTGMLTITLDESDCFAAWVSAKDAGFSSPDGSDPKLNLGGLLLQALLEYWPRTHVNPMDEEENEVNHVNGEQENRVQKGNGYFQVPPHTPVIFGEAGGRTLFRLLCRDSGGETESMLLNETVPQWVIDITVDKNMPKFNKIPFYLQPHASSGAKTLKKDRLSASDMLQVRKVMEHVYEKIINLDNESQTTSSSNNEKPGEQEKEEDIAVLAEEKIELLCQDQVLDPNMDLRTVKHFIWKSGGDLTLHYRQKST
Protocol: Example A1: Enzymatic Assay
Human recombinant USP1/UAF1 expressed in baculovirus infected Sf21 cells were used (R & D, E-568-050). Test compound and/or vehicle was incubated with 2 nM of USP1/UAF1 in modified HEPES buffer pH 8.0 for 15 minutes at RT. The reaction was initiated by addition of 500 nM of Ubiquitin Rhodamine 110 (R & D, U-555-050) for kinetic reading. Slope change of fluorescence intensity was read spectrofluorimetrically at 485 nm/535 nm. Dose response of test compounds or reference compound ML-323 was analyzed by nonlinear regression of GraphPad prism software.

[2] = test system: MDA-MB-436 cells; test: MDA-MB-436 breast cancer cell proliferation assay (CellTiter-Glo); type: cell-based; conditions: Homo sapiens, 168 h, 7 days, 37° C.
Protocol: Example A2: MDA-MB-436 Breast Cancer Cell Culture
MDA-MB-436 cells were grown in Leibovitz's L-15 medium with 10 μg/ml insulin, 16 μg/ml glutathione, 10% FBS. Cells were passaged at subconfluence after trypsinization and maintained in incubators at 37° C. in a humidified atmosphere with 5% CO2.
Example A3: MDA-MB-436 Breast Cancer Cell Proliferation Assay
Cell proliferation was determined using CellTiter-Glo® Luminescent Cell Viability Assay (Promega, #G7573). MDA-MB-436 cells were seeded in 384-well plates and allowed to attach for 24 h. Compounds were added into 384-well plate by ECHO, and incubated at 37° C. in a humidified atmosphere with 5% CO2. After 7 days, CellTiter-Glo® was added into 384 well plates, contents were mixed on an orbital shaker at 400 g for 2 min before centrifuging the plate for 2 min at 1000 rpm. After incubation at RT for 30 min, luminescence was read on envision.

SMILES | IC50 [1] [nM] | IC50 [2] [nM]
COc1ncnc(C2CC2)c1-n1nc(C)c2c1CN(c1ccc(-c3nc(C(F)(F)F)cn3C)nc1)CC2 [Compound 14, 1-(4-cyclopropyl-6-methoxypyrimidin-5-yl)-3-methyl-6-(6-(1-methyl-4-(trifluoromethyl)-1H-imidazol-2-yl)pyridin-3-yl)-4,5,6,7-tetrahydro-1H-pyrazolo[3,4-c]pyridine] | 50 to 1000 | 50 to 1000
COc1ncnc(C2CC2)c1-n1nc(C)c2c1CN(c1ccc(-c3nc(C(F)(F)F)cn3C)cc1F)CC2 [Compound 18, 1-(4-cyclopropyl-6-methoxypyrimidin-5-yl)-6-(2-fluoro-4-(1-methyl-4-(trifluoromethyl)-1H-imidazol-2-yl)phenyl)-3-methyl-4,5,6,7-tetrahydro-1H-pyrazolo[3,4-c]pyridine] | 50 to 1000 | < 50
CCn1cc(C(F)(F)F)nc1-c1cnc(N2CCc3c(C)nn(-c4c(C)cnn4C(C)C)c3C2)cn1 [Compound 29, 6-(5-(1-ethyl-4-(trifluoromethyl)-1H-imidazol-2-yl)pyrazin-2-yl)-1-(1-isopropyl-4-methyl-1H-pyrazol-5-yl)-3-methyl-4,5,6,7-tetrahydro-1H-pyrazolo[3,4-c]pyridine] | < 50 | < 50
CC(C)c1ncccc1-c1nccc2c1CC(c1ccc(-c3nc(C(F)(F)F)cn3C)cc1)C2 (centres unmarked) [Compound 26, 1-(2-isopropylpyridin-3-yl)-6-(4-(1-methyl-4-(trifluoromethyl)-1H-imidazol-2-yl)phenyl)-6,7-dihydro-5H-cyclopenta[c]pyridine] | < 50 | 50 to 1000
COc1ncnc(C2CC2)c1-n1nc(C)c2c1CN(c1ccc(-n3nc(C(F)(F)F)cc3C)cn1)CC2 [Compound 20, 1-(4-cyclopropyl-6-methoxypyrimidin-5-yl)-3-methyl-6-(5-(5-methyl-3-(trifluoromethyl)-1H-pyrazol-1-yl)pyridin-2-yl)-4,5,6,7-tetrahydro-1H-pyrazolo[3,4-c]pyridine] | 50 to 1000 | 50 to 1000
COc1ncnc(C2CC2)c1-n1nc(C)c2c1CN(c1ccc(-c3nc(C(F)(F)F)cn3C)cn1)CC2 [Compound 11, 1-(4-cyclopropyl-6-methoxypyrimidin-5-yl)-3-methyl-6-(5-(1-methyl-4-(trifluoromethyl)-1H-imidazol-2-yl)pyridin-2-yl)-4,5,6,7-tetrahydro-1H-pyrazolo[3,4-c]pyridine] | 50 to 1000 | < 50
COc1ncnc(C2CC2)c1-c1nccc2c1CC(c1ccc(-c3nc(C(F)(F)F)cn3C)cn1)C2 (centres unmarked) [Compound 31, 1-(4-cyclopropyl-6-methoxypyrimidin-5-yl)-6-(5-(1-methyl-4-(trifluoromethyl)-1H-imidazol-2-yl)pyridin-2-yl)-6,7-dihydro-5H-cyclopenta[c]pyridine] | 50 to 1000 | 1000 to 10000
COc1ncnc(C2CC2)c1-n1nc(Cl)c2c1CN(c1ccc(-c3nc(C(F)(F)F)cn3C)cn1)CC2 [Compound 28, 3-chloro-1-(4-cyclopropyl-6-methoxypyrimidin-5-yl)-6-(5-(1-methyl-4-(trifluoromethyl)-1H-imidazol-2-yl)pyridin-2-yl)-4,5,6,7-tetrahydro-1H-pyrazolo[3,4-c]pyridine] | < 50 | < 50
COc1ncnc(C2CC2)c1-n1nc(C)c2c1CN(c1ccc(-c3nc(C(F)(F)F)cn3C)c(F)n1)CC2 [Compound 25, 1-(4-cyclopropyl-6-methoxypyrimidin-5-yl)-6-(6-fluoro-5-(1-methyl-4-(trifluoromethyl)-1H-imidazol-2-yl)pyridin-2-yl)-3-methyl-4,5,6,7-tetrahydro-1H-pyrazolo[3,4-c]pyridine] | < 50 | < 50
Cc1nn(-c2ccccc2C(C)C)c2c1CCN(c1ccc(-c3nc(C(F)(F)F)cn3C)cn1)C2 [Compound 19, 1-(2-isopropylphenyl)-3-methyl-6-(5-(1-methyl-4-(trifluoromethyl)-1H-imidazol-2-yl)pyridin-2-yl)-4,5,6,7-tetrahydro-1H-pyrazolo[3,4-c]pyridine] | < 50 | < 50
